From paper PMC5020499, “Crystal structures of archaeal 2-oxoacid:ferredoxin oxidoreductases from Sulfolobus tokodaii” (Scientific Reports, 2016)

Biological target: T1, StOFOR2 (Sulfurisphaera tokodaii, UniProt Q96XT2+Q96XT4)
T1 construct: gene ST2435; recombinant in E. coli C43(DE3), genes from S. tokodaii genomic DNA in pOFORAB (pET-17b based), untagged; (ab)2 heterotetramer with TPP, Mg2+, [4Fe-4S]
Assay: X-ray crystal structure, […] Å
Assay type: binding
Details: crystal soaked with 50 mM pyruvate for 30 min; active site, unreacted pyruvate

T1 sequence (Q96XT2 whole entry): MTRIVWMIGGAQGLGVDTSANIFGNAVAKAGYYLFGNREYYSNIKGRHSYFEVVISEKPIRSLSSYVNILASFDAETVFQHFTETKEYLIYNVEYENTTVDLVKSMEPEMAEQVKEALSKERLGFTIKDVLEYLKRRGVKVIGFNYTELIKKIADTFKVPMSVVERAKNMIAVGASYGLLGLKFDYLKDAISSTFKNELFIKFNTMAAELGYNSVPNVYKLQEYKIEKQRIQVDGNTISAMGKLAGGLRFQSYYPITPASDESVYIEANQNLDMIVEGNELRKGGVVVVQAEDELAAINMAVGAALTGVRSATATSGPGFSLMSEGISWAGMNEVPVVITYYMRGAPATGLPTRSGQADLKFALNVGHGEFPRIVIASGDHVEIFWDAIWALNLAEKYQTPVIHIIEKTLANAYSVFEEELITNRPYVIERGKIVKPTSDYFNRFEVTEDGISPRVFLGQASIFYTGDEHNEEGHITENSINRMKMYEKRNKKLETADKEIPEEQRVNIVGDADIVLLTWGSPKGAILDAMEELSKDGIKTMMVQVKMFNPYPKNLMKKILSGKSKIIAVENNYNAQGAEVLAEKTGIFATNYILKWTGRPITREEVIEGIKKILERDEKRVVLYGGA
T1 sequence (Q96XT4 whole entry): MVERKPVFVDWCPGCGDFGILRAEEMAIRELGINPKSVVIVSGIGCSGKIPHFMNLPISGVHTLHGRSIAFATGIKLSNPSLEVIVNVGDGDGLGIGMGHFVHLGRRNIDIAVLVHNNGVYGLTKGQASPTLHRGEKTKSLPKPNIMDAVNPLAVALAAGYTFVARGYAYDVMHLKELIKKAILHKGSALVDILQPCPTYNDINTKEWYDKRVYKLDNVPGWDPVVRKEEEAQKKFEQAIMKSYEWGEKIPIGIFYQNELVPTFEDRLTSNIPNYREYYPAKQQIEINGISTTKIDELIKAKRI

For CC(=O)C(=O)O [pyruvate], the “X-ray crystal structure, 2.2 Å” value was “we observed a separate density peak corresponding to the approximate size and shape of an unreacted pyruvate”.
